Test results published in the kinase profiling compilation of Christmann-Franck et al. (2016).
Values joined by “and” are separate entries in the source; they are usually repeats but may differ in a detail not shown here. Equal values may be shown once.

Assays:
Assay in all cases: radiometric filter-binding kinase assay, Kinase HotSpot
Conditions in all cases: compound 0.5 µM; ATP 10 µM
PRKACG (human) = PRKACG (human) (UniProt P22612)
RPS6KA4 KD2 (human) = RPS6KA4 KD2 (human) (UniProt O75676)
PIM3 (human) = PIM3 (human) (UniProt Q86V86)
TLK2 (human) = TLK2 (human) (UniProt Q86UE8)
LYN (human) = LYN (human) (UniProt P07948)
TYRO3 (human) = TYRO3 (human) (UniProt Q06418)
DAPK2 (human) = DAPK2 (human) (UniProt Q9UIK4)
MYO3B (human) = MYO3B (human) (UniProt Q8WXR4)
LCK (human) = LCK (human) (UniProt P06239)
SRMS (human) = SRMS (human) (UniProt Q9H3Y6)
JAK2 JH1 JH2 (human) = JAK2 JH1 JH2 (human) (UniProt O60674)
EPHA6 (human) = EPHA6 (human) (UniProt Q9UF33)
WEE1 (human) = WEE1 (human) (UniProt P30291)
STK25 (human) = STK25 (human) (UniProt O00506)
INSR (human) = INSR (human) (UniProt P06213)
CHEK1 (human) = CHEK1 (human) (UniProt O14757)
EGFR (human) = EGFR (human) (UniProt P00533)
EPHB4 (human) = EPHB4 (human) (UniProt P54760)
NTRK2 (human) = NTRK2 (human) (UniProt Q16620)
TAOK1 (human) = TAOK1 (human) (UniProt Q7L7X3)
STK38 (human) = STK38 (human) (UniProt Q15208)
CDC42BPA (human) = CDC42BPA (human) (UniProt Q5VT25)
DSTYK (human) = DSTYK (human) (UniProt Q6XUX3)
ABL2 (human) = ABL2 (human) (UniProt P42684)
NUAK1 (human) = NUAK1 (human) (UniProt O60285)
YES1 (human) = YES1 (human) (UniProt P07947)
FGR (human) = FGR (human) (UniProt P09769)
ERBB2 (human) = ERBB2 (human) (UniProt P04626)
CAMKK2 (human) = CAMKK2 (human) (UniProt Q96RR4)
CAMK1D (human) = CAMK1D (human) (UniProt Q8IU85)
MAP3K10 (human) = MAP3K10 (human) (UniProt Q02779)
DYRK1B (human) = DYRK1B (human) (UniProt Q9Y463)
PRKG1 (human) = PRKG1 (human) (UniProt Q13976)
ULK3 (human) = ULK3 (human) (UniProt Q6PHR2)
PAK7 (human) = PAK7 (human) (UniProt Q9P286)
ADRBK2 (human) = ADRBK2 (human) (UniProt P35626)
OXSR1 (human) = OXSR1 (human) (UniProt O95747)
ADRBK1 (human) = ADRBK1 (human) (UniProt P25098)
PLK3 (human) = PLK3 (human) (UniProt Q9H4B4)
RPS6KA1 KD1 KD2 (human) = RPS6KA1 KD1 KD2 (human) (UniProt Q15418)
BRAF (human) = BRAF (human) (UniProt P15056)
ULK2 (human) = ULK2 (human) (UniProt Q8IYT8)

Chain of ADRBK2 (human) (P35626 whole entry, looked up): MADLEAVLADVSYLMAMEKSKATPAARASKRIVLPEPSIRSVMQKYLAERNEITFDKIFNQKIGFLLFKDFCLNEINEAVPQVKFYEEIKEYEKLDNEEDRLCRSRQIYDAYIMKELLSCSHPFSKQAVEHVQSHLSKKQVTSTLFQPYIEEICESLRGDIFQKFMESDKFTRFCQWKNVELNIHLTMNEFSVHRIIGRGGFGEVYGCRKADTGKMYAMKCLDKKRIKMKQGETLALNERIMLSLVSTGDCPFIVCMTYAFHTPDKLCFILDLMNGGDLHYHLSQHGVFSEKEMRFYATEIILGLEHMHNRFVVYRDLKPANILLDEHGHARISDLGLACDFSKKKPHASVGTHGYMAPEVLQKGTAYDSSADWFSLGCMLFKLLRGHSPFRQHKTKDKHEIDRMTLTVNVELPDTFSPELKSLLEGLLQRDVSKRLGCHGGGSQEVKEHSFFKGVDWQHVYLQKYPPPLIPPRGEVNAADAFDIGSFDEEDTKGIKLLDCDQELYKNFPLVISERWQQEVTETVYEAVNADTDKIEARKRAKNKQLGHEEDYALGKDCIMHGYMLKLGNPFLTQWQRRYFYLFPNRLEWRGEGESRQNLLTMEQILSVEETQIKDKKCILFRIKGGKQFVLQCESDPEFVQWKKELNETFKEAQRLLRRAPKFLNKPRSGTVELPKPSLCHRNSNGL
Chain of NTRK2 (human) (Q16620 whole entry, looked up): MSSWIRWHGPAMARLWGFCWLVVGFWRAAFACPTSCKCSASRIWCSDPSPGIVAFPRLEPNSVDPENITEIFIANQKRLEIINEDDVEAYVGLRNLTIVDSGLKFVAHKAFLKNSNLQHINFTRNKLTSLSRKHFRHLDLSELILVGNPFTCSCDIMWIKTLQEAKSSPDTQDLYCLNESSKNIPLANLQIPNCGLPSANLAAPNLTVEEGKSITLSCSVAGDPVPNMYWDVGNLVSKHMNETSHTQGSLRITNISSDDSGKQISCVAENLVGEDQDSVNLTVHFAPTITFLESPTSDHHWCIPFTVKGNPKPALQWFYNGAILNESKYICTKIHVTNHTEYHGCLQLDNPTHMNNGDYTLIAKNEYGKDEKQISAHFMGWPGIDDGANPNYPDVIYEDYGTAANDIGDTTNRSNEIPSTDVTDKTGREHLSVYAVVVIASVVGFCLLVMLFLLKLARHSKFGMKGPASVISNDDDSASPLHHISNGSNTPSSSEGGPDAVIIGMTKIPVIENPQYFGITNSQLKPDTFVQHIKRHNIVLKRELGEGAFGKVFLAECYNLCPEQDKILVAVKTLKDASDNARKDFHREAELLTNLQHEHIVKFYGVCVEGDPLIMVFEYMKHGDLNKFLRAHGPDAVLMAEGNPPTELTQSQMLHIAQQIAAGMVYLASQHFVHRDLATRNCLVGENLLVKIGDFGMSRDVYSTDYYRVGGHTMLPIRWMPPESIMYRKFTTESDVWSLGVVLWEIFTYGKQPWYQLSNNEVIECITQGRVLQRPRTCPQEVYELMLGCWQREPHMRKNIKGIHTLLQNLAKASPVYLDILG
Chain of DYRK1B (human) (Q9Y463 whole entry, looked up): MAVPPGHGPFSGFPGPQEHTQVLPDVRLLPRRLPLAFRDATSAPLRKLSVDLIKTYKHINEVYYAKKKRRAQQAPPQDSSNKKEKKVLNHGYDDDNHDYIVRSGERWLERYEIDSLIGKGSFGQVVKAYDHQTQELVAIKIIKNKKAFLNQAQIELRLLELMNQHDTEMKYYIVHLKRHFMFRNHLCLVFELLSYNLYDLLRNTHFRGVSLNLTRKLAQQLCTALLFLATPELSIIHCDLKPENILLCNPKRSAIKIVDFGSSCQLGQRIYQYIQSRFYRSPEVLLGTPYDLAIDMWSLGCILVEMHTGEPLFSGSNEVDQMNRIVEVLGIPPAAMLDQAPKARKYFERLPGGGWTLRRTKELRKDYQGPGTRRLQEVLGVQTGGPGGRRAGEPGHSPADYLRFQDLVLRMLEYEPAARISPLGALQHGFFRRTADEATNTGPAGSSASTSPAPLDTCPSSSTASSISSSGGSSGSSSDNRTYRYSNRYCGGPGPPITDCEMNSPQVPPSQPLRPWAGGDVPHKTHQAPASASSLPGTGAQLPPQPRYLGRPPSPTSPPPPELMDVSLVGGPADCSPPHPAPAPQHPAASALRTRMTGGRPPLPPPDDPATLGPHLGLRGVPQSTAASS
Chain of MYO3B (human) (Q8WXR4 whole entry, looked up): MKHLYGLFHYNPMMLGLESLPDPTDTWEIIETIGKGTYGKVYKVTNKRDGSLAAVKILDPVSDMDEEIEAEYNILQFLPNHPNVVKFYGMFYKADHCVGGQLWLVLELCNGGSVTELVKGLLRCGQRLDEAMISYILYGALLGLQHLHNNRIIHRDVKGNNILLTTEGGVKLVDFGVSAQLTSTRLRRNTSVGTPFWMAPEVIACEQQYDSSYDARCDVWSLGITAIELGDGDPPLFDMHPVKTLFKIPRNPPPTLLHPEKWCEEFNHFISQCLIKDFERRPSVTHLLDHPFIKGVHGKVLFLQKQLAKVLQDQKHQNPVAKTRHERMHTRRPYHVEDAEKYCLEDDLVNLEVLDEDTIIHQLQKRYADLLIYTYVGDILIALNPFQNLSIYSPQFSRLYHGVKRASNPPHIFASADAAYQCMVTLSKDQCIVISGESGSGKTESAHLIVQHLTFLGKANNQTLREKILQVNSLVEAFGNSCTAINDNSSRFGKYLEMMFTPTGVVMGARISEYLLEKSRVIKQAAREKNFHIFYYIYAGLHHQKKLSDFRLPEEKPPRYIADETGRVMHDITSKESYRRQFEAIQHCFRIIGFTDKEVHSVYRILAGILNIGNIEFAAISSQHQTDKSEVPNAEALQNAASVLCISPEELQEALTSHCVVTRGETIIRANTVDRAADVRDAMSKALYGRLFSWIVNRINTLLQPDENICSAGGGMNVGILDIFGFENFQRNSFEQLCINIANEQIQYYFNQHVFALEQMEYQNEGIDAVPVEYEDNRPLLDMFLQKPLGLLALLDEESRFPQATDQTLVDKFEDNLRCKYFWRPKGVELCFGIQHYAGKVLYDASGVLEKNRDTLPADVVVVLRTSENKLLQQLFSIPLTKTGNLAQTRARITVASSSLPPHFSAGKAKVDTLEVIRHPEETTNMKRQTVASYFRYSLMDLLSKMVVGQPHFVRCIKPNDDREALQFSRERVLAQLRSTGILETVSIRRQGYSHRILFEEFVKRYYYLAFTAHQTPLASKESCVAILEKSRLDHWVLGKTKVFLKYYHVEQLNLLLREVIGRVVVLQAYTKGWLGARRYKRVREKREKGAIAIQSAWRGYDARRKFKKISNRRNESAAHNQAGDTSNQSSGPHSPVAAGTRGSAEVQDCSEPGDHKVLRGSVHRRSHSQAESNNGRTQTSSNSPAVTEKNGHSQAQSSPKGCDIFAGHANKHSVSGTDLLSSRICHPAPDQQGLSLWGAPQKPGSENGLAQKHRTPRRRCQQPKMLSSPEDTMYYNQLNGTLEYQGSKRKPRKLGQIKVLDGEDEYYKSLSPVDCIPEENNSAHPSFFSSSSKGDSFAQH
Chain of DAPK2 (human) (Q9UIK4 whole entry, looked up): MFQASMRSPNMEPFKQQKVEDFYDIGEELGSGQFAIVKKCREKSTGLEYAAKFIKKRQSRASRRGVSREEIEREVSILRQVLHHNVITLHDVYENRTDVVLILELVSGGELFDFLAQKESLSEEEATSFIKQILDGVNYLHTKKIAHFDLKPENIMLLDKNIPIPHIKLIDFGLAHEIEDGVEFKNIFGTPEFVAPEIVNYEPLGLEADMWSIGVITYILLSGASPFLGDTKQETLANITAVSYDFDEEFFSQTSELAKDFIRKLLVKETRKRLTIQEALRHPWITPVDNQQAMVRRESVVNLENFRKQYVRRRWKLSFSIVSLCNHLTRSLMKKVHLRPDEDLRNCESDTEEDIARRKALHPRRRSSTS
Chain of ABL2 (human) (P42684 whole entry, looked up): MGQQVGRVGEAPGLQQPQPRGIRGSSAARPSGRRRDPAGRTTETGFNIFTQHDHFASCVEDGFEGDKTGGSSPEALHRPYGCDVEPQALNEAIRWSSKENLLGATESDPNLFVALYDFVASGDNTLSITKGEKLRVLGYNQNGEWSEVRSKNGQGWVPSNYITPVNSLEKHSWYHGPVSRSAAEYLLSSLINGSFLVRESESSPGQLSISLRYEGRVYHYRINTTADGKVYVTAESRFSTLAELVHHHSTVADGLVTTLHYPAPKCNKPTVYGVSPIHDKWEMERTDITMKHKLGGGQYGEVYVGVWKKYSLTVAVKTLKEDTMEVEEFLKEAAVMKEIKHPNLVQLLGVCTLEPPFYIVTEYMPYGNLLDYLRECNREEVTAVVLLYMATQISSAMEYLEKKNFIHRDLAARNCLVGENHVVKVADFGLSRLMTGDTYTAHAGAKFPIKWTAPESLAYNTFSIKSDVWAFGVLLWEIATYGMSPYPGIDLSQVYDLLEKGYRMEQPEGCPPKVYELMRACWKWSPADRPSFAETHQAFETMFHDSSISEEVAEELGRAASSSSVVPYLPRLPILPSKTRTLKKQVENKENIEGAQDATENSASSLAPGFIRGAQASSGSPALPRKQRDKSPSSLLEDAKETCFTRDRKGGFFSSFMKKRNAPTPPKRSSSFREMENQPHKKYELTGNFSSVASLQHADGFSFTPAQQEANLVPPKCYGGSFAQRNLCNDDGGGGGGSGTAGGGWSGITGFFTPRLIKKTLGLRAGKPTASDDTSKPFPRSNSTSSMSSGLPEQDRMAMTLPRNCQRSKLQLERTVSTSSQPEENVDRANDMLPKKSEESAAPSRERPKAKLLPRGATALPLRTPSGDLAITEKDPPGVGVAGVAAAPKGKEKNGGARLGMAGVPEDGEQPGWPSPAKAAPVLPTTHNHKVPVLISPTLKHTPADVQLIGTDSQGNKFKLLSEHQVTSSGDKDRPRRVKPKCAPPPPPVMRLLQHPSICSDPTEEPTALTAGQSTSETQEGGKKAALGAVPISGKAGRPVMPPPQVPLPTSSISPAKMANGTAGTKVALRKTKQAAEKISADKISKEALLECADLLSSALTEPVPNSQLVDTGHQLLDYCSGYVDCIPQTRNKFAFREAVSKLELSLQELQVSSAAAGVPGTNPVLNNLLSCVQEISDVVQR

O=c1c(-c2ccc(F)cc2)c(-c2ccncc2)[nH]n1-c1ccc(Cl)cc1
residual activity (PRKACG (human)): 91.9% | residual activity (RPS6KA4 KD2 (human)): 103% | residual activity (PIM3 (human)): 89.9% | residual activity (TLK2 (human)): 109% | residual activity (LYN (human)): 97.5% and 99.7% | residual activity (TYRO3 (human)): 105% | residual activity (DAPK2 (human)): 104% | residual activity (MYO3B (human)): 90.7% | residual activity (LCK (human)): 101% | residual activity (SRMS (human)): 104% | residual activity (JAK2 JH1 JH2 (human)): 95.1% | residual activity (EPHA6 (human)): 57% | residual activity (WEE1 (human)): 81.6% | residual activity (STK25 (human)): 111% | residual activity (INSR (human)): 110% | residual activity (CHEK1 (human)): 101% | residual activity (EGFR (human)): 57.7% | residual activity (EPHB4 (human)): 97.2% | residual activity (NTRK2 (human)): 88.5% | residual activity (TAOK1 (human)): 102% | residual activity (STK38 (human)): 93.7% | residual activity (CDC42BPA (human)): 98% | residual activity (DSTYK (human)): 92.9% | residual activity (ABL2 (human)): 82.8% | residual activity (NUAK1 (human)): 89.1% | residual activity (YES1 (human)): 85.1% | residual activity (FGR (human)): 87.4% | residual activity (ERBB2 (human)): 103% | residual activity (CAMKK2 (human)): 83% | residual activity (CAMK1D (human)): 72.2% | residual activity (MAP3K10 (human)): 88.1% | residual activity (DYRK1B (human)): 92.2% | residual activity (PRKG1 (human)): 106% and 95.6% | residual activity (ULK3 (human)): 94.3% | residual activity (PAK7 (human)): 86.3% | residual activity (ADRBK2 (human)): 95% | residual activity (OXSR1 (human)): 83.3% | residual activity (ADRBK1 (human)): 106% | residual activity (PLK3 (human)): 96.3% | residual activity (RPS6KA1 KD1 KD2 (human)): 103%

N#C/C(=C1/Nc2ccccc2S1)c1ccnc(NCCc2cccnc2)n1
residual activity (PRKACG (human)): 101% | residual activity (RPS6KA4 KD2 (human)): 107% | residual activity (PIM3 (human)): 3.74% | residual activity (TLK2 (human)): 102% | residual activity (LYN (human)): 96.2% and 96.4% | residual activity (TYRO3 (human)): 98.3% | residual activity (DAPK2 (human)): 119% | residual activity (MYO3B (human)): 96.1% | residual activity (LCK (human)): 98.3% | residual activity (SRMS (human)): 106% | residual activity (JAK2 JH1 JH2 (human)): 106% | residual activity (EPHA6 (human)): 87.1% | residual activity (WEE1 (human)): 88.5% | residual activity (STK25 (human)): 97.7% | residual activity (INSR (human)): 100% | residual activity (CHEK1 (human)): 94.6% | residual activity (EPHB4 (human)): 99.7% | residual activity (NTRK2 (human)): 93.2% | residual activity (TAOK1 (human)): 98% | residual activity (STK38 (human)): 100% | residual activity (CDC42BPA (human)): 99.6% | residual activity (DSTYK (human)): 93.4% | residual activity (BRAF (human)): 96.6% | residual activity (ABL2 (human)): 98.8% | residual activity (NUAK1 (human)): 91.8% | residual activity (YES1 (human)): 89.1% | residual activity (FGR (human)): 86.1% | residual activity (ERBB2 (human)): 104% | residual activity (CAMKK2 (human)): 80.4% | residual activity (CAMK1D (human)): 108% | residual activity (MAP3K10 (human)): 79.6% | residual activity (DYRK1B (human)): 53.2% | residual activity (PRKG1 (human)): 97.5% and 99.4% | residual activity (ULK3 (human)): 99.1% | residual activity (PAK7 (human)): 98.9% | residual activity (ADRBK2 (human)): 99.1% | residual activity (ULK2 (human)): 116% | residual activity (OXSR1 (human)): 99% | residual activity (ADRBK1 (human)): 103% | residual activity (PLK3 (human)): 94.7% | residual activity (RPS6KA1 KD1 KD2 (human)): 79%

O=C1NC(=O)c2cc(Nc3ccc(F)cc3)c(Nc3ccc(F)cc3)cc21
residual activity (PRKACG (human)): 101% | residual activity (RPS6KA4 KD2 (human)): 102% | residual activity (PIM3 (human)): 105% | residual activity (TLK2 (human)): 93.5% | residual activity (LYN (human)): 97.8% and 98.7% | residual activity (TYRO3 (human)): 94.8% | residual activity (DAPK2 (human)): 96.7% | residual activity (MYO3B (human)): 98.2% | residual activity (LCK (human)): 98.4% | residual activity (SRMS (human)): 95.5% | residual activity (JAK2 JH1 JH2 (human)): 94.6% | residual activity (EPHA6 (human)): 66.8% | residual activity (WEE1 (human)): 99.6% | residual activity (STK25 (human)): 101% | residual activity (INSR (human)): 98.3% | residual activity (CHEK1 (human)): 104% | residual activity (EPHB4 (human)): 108% | residual activity (NTRK2 (human)): 91.9% | residual activity (TAOK1 (human)): 90.3% | residual activity (STK38 (human)): 85.5% | residual activity (CDC42BPA (human)): 92.3% | residual activity (DSTYK (human)): 95.6% | residual activity (BRAF (human)): 94.2% | residual activity (ABL2 (human)): 89.6% | residual activity (NUAK1 (human)): 94% | residual activity (YES1 (human)): 86.6% | residual activity (FGR (human)): 96.3% | residual activity (ERBB2 (human)): 107% | residual activity (CAMKK2 (human)): 88.3% | residual activity (CAMK1D (human)): 78.1% | residual activity (MAP3K10 (human)): 90.6% | residual activity (DYRK1B (human)): 105% | residual activity (PRKG1 (human)): 103% and 94.3% | residual activity (ULK3 (human)): 96.3% | residual activity (PAK7 (human)): 96.4% | residual activity (ADRBK2 (human)): 104% | residual activity (ULK2 (human)): 84.7% | residual activity (OXSR1 (human)): 101% | residual activity (ADRBK1 (human)): 104% | residual activity (PLK3 (human)): 98% | residual activity (RPS6KA1 KD1 KD2 (human)): 97.7%
